Source: paper PMC5520047, “Prioritizing multiple therapeutic targets in parallel using automated DNA-encoded library screening” (Nature Communications, 2017)
Values after ≈ are worked out from the molar mass of the structure shown.

Tests used:
[1] = biological target: M. tuberculosis Dihydrofolate reductase (DHFR) (Mycobacterium tuberculosis, UniProt P9WNX1); assay: biochemical
[2] = system: M. tuberculosis H37Rv; assay: MIC determination against M. tuberculosis H37Rv (resazurin); type: cell-based; conditions: Mycobacterium tuberculosis
Method: (§1) 409 remaining NADPH to convert resazurin into the fluorescent resorufin14. The assay buffer containing
(§2) 410 81.4 mM Hepes pH 7.8, 300 mM KCl, 0.4 mg/mL BSA was used to make the enzyme addition containing
(§3) 411 1.2 μg/mL Mtb DHFR and 50 μM NADPH. This was added in equal volume (5 μL) to a substrate solution
(§4) 412 composed of 240 µM DHF in H2O and incubated for 50 min. Developing solution was prepared with
(§5) 413 0.045 mM Resazurin and 0.6 U/ml Diaphorase in 200 mM sodium phosphate buffer pH 7.8 and 5 μL was
(§6) 414 added. The experiments were conducted in black 384-well plates (Greiner Catalog # 784076) and all
(§7) 415 liquid additions were conducted using a Multidrop combi (Thermo Scientific). The plate was read on a
(§8) 416 ViewLux following a 10 minute delay. Resorufin light production was measured using appropriate
(§9) 417 Viewlux filters: Ex: 525 / 20 Pol (BODIPY TMR FP) Em: 598 / 25 (BODIPY TMR) (B04). Assay plates were
(§10) 418 pre-dispensed with 100 nL DMSO or with 100 nL compounds dissolved in neat DMSO using an Echo®
(§11) 419 liquid handler (Labcyte Inc.) where all wells contained compound samples, except wells in columns 6
420 and 18 that contained DMSO control. Column 6 represented 100% Mtb DHFR activity in the absence of
421 GSK compounds. […] Compounds were
422 tested at 1% DMSO in 11 point dose response with a 1:3 dilution and fit to a standard 4 parameter fit to
423 calculate an IC50 value and are reported as the average of two replicates. Standard deviation values
424 were calculated using the n-1 method.
428 Minimum Inhibitory Concentration Assays:
429 MIC determination against M. tuberculosis H37Rv:
430 The measurement of the Minimum Inhibitory Concentration (MIC) against M. tuberculosis H37Rv for
431 each tested compound was performed in 96-well flat-bottom, polystyrene microtiter plates in a final
432 volume of 100 μl. Ten two-fold drug dilutions in neat DMSO starting at 50 mM were performed. Drug […]
(§12) 440 saline). […] Fluorescence was measured (Spectramax M5 […]
(§13) 444 Minimum inhibitory concentrations (MICs) of compounds were determined using broth microdilution […]

[3] = system: Acinetobacter baumannii ATCC 19606-1 ΔLpxC; assay: MIC broth microdilution; type: cell-based; conditions: ATCC19606
[4] = system: E. coli TOP10 ∆TolC, pHN678’ and pHN678’-LolA antisense; assay: MoA study: MIC in lolA antisense expressor; type: cell-based, Escherichia coli; conditions: for MIC: Escherichia coli
[5] = system: H. influenzae ΔtolC; assay: MIC broth microdilution; type: cell-based; conditions: Haemophilus influenzae
[6] = system: Staphylococcus aureus RN4220; assay: MIC broth microdilution; type: cell-based; conditions: S. aureus RN4220 Gram-positive
Method: as §1, §2, §3, §4, §5, §6, §7, §8, §9, §10, §11
420 and 18 that contained DMSO control. Column 6 represented 100% Mtb DHFR activity in the absence of […]
424 were calculated using the n-1 method. […]
as §12, §13

[7] = system: Klebsiella pneumoniae 1161486a ΔtolC; assay: MIC broth microdilution; type: cell-based
[8] = system: Acinetobacter baumannii BM4652 ΔadeABC ΔadeIJK (efflux mutant); assay: MIC broth microdilution; type: cell-based
[9] = system: Pseudomonas aeruginosa PA0322 Δ(mexAB-oprM) Δ(mexCD-oprJ) Δ(mexEF-oprN); assay: MIC broth microdilution; type: cell-based
[10] = system: Escherichia coli 7623 ΔtolC; assay: MIC broth microdilution; type: cell-based
[11] = system: S. aureus RN4220 (pYH4) and RN4220 (pYH4-MRS); assay: MoA study: MIC in MRS overexpressor strain; type: cell-based, Staphylococcus aureus; conditions: for MIC: Staphylococcus aureus
[12] = system: S. aureus WCUH29 wild type; assay: MIC broth microdilution; type: cell-based, Staphylococcus aureus; conditions: Staphylococcus aureus, WCUH29WILDTYPE; S. aureus WCUH29 wild type; read-out: MIC
[13] = biological target: S. aureus methionyl-tRNA synthetase (MRS) (Staphylococcus aureus, UniProt Q5HII6); assay: t-RNA synthetase biochemical assay (MRS); conditions: average of two replicates with s.d.
[14] = system: A. baumannii BM4652 strains; assay: Potentiation of teicoplanin MIC by LpxA compound 4; type: cell-based, Acinetobacter baumannii
[15] = system: A. baumannii BM4652 efflux mutant, pRK415 and pRK415-UppS; assay: microbe, parasite or virus in culture; type: cell-based, Acinetobacter baumannii; conditions: 30 μg/ml polymyxin B nonapeptide; for MIC: Acinetobacter baumannii; for Fold MIC increase: pRK415-UppS overexpressing strain relative to parent strain
[16] = E. coli TOP10 ∆TolC + pHN678’-LolA antisense

Chain of S. aureus methionyl-tRNA synthetase (MRS) (Q5HII6 whole entry): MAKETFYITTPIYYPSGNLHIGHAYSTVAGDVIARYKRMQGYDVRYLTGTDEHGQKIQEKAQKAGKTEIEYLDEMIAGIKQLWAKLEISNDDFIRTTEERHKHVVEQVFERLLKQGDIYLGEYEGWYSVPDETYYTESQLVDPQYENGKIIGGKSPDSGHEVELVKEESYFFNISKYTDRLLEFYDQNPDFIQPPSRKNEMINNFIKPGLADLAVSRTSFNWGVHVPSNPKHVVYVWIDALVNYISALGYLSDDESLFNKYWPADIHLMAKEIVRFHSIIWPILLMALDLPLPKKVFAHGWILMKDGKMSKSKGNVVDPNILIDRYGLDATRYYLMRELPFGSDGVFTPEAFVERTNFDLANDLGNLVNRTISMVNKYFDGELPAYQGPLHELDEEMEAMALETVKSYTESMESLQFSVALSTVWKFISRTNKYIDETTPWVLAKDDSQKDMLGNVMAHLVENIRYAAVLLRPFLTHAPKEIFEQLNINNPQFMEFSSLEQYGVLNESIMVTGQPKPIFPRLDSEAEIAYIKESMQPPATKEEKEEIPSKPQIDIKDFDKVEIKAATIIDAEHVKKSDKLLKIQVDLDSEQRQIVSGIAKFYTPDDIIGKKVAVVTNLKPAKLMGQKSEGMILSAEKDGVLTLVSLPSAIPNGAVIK
Chain of M. tuberculosis Dihydrofolate reductase (DHFR) (P9WNX1 whole entry): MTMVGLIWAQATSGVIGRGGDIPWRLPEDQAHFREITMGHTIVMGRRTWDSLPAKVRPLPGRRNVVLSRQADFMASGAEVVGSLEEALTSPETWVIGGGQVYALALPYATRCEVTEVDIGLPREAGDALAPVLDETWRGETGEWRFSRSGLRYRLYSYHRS

COc1ccc(OC)c(Cc2cnc3nc(N)nc(N)c3c2C)c1 [Compound 8]
IC50 [1]: 610 ± 420 nM
MIC [2]: 2.5 µM (≈ 0.813 µg/mL)

CCNc1cc(N2CCc3cc(NS(C)(=O)=O)ccc3C2C)nc(-c2cc(F)cc(C#N)c2)n1 (stereo not drawn) [Compound 6]
MIC [3]: 32 µg/mL (≈ 66.6 µM)
MIC ([4]; E. coli TOP10 ∆TolC + pHN678’): 128 µg/mL
MIC [4, 16]: 4 µg/mL
Fold MIC decrease ([4]; lolA antisense plasmid compared to vector alone): 32 fold
MIC [5]: 2 µg/mL (≈ 4.16 µM)
MIC [6]: > 128 µg/mL
MIC [7]: > 128 µg/mL
MIC ([8]; A. baumannii BM652 efflux strain): > 128 µg/mL
MIC ([8]; A. baumannii BM4652 ΔadeABC ΔadeIJK efflux mutant): > 128 µg/mL
MIC [9]: > 128 µg/mL
MIC [10]: > 128 µg/mL

CNC(=O)c1ccc2c(c1)nc(-c1ccc(Br)c(O)c1)n2C(CNC(=O)COc1ccccc1C(C)(C)C)c1ccc(OC)c(OC)c1 (stereo not drawn) [Compound 1]
MIC increase ([11]; MRS overexpressor induced with 0.1 μg ml^−1 anhydrotetracycline vs vector control strain): > 128 fold
MIC increase ([11]; MRS overexpressor uninduced vs vector control strain): 8 fold
MIC ([11]; S. aureus RN4220 pYH4-MRS (induced with 0.1 µg/ml anhydrotetracycline)): 64 µg/mL (≈ 89.4 µM)
MIC ([11]; S. aureus RN4220 pYH4-MRS overexpressor (uninduced)): 4 µg/mL (≈ 5.59 µM)
MIC ([11]; S. aureus RN4220 pYH4 vector alone): 0.5 µg/mL (≈ 0.699 µM)
MIC [12]: 0.5 µg/mL (≈ 0.699 µM)
IC50 [13]: 0.83 ± 0.05 nM

teicoplanin
MIC of teicoplanin ([14]; A. baumannii BM4652/pRK415-LpxA, compound 4 at 0 µg/ml): > 64 µg/mL
MIC of teicoplanin ([14]; A. baumannii BM4652/pRK415-LpxA, compound 4 at 4 µg/ml): > 64 µg/mL
MIC of teicoplanin ([14]; A. baumannii BM4652/pRK415-LpxA, compound 4 at 8 µg/ml): > 64 µg/mL
MIC of teicoplanin ([14]; A. baumannii BM4652/pRK415-LpxA, compound 4 at 16 µg/ml): > 64 µg/mL
MIC of teicoplanin ([14]; A. baumannii BM4652/pRK415-LpxA, compound 4 at 32 µg/ml): > 64 µg/mL
MIC of teicoplanin ([14]; A. baumannii BM4652/pRK415-LpxA, compound 4 at 64 µg/ml): > 64 µg/mL
MIC of teicoplanin ([14]; A. baumannii BM4652/pRK415-LpxA, compound 4 at 128 µg/ml): > 64 µg/mL
MIC of teicoplanin ([14]; A. baumannii BM4652/pRK415, compound 4 at 0 µg/ml): > 64 µg/mL
MIC of teicoplanin ([14]; A. baumannii BM4652/pRK415, compound 4 at 4 µg/ml): > 64 µg/mL
MIC of teicoplanin ([14]; A. baumannii BM4652/pRK415, compound 4 at 8 µg/ml): > 64 µg/mL
MIC of teicoplanin ([14]; A. baumannii BM4652/pRK415, compound 4 at 16 µg/ml): > 64 µg/mL
MIC of teicoplanin ([14]; A. baumannii BM4652/pRK415, compound 4 at 32 µg/ml): 0.5 µg/mL
MIC of teicoplanin ([14]; A. baumannii BM4652/pRK415, compound 4 at 64 µg/ml): 0.5 µg/mL
MIC of teicoplanin ([14]; A. baumannii BM4652/pRK415, compound 4 at 128 µg/ml): 0.5 µg/mL
MIC of teicoplanin ([14]; A. baumannii BM4652, compound 4 at 0 µg/ml): > 64 µg/mL
MIC of teicoplanin ([14]; A. baumannii BM4652, compound 4 at 4 µg/ml): > 64 µg/mL
MIC of teicoplanin ([14]; A. baumannii BM4652, compound 4 at 8 µg/ml): > 64 µg/mL
MIC of teicoplanin ([14]; A. baumannii BM4652, compound 4 at 16 µg/ml): 16 µg/mL
MIC of teicoplanin ([14]; A. baumannii BM4652, compound 4 at 32 µg/ml): 0.5 µg/mL
MIC of teicoplanin ([14]; A. baumannii BM4652, compound 4 at 64 µg/ml): 0.5 µg/mL
MIC of teicoplanin ([14]; A. baumannii BM4652, compound 4 at 128 µg/ml): 0.5 µg/mL

CC(C)(O/N=C(\C(=O)N[C@@H]1C(=O)N2C(C(=O)[O-])=C(C[n+]3ccccc3)CS[C@H]12)c1csc(N)n1)C(=O)O [Ceftazidime]
MIC ([15]; A. baumannii BM4652 efflux mutant + pRK415-UppS): 0.5 µg/mL
MIC ([15]; A. baumannii BM4652 efflux mutant + pRK415): 0.5 µg/mL
MIC ([15]; A. baumannii BM4652 efflux mutant, N/A (no plasmid)): 0.5 µg/mL
Fold MIC increase [15]: 1 fold
Fold MIC increase ([15]; listed as ceftazidime): unchanged

O=C(O)c1cn(C2CC2)c2cc(N3CCNCC3)c(F)cc2c1=O [Ciprofloxacin]
MIC ([4]; E. coli TOP10 ∆TolC + pHN678’): 0.0078 µg/mL
MIC [4, 16]: 0.0078 µg/mL
